Values of other authors, collected in patent US20230285278A1, “METHODS FOR TREATING CHRONIC RHINOSINUSITIS” (OptiNose, Inc., priority 2022, published 2023).
Where two headings read alike, the source gives them in different places.

Solubility (in 96% ethanol): slightly soluble
Solubility (in acetone): sparingly soluble
Solubility (in dichloromethane): sparingly soluble
Solubility (in dimethylformamide): freely soluble
Solubility (in water): practically insoluble
SMILES: CCC(=O)O[C@]1(C(=O)SCF)[C@H](C)C[C@H]2[C@@H]3C[C@H](F)C4=CC(=O)C=C[C@]4(C)[C@@]3(F)[C@@H](O)C[C@@]21C [Fluticasone propionate, S-(fluoromethyl) 6α,9-difluoro-11β,17-dihydroxy-16α-methyl-3oxoandrosta-1,4-diene-17β-carbothioate, 17-propionate]
